{
  "source": "paper PMC13192270",
  "about": "“RhlR quorum-sensing receptor ligand sensitivity regulates the differential expression of phenazine genes in Pseudomonas aeruginosa” (Journal of Bacteriology, 2026)",
  "key": {"[1]": {"molecular_target": "T1, WT RhlR in ΔrhlI strain (Pseudomonas aeruginosa, UniProt P54292)", "T1 construct": "Comparison of ChIP enrichment from the ΔrhlI and ΔrhlI RhlR T58L strains; endogenous in cells; host or cells: P. aeruginosa UCBPP-PA14 ΔrhlI", "T1 sequence (P54292 1-241)": "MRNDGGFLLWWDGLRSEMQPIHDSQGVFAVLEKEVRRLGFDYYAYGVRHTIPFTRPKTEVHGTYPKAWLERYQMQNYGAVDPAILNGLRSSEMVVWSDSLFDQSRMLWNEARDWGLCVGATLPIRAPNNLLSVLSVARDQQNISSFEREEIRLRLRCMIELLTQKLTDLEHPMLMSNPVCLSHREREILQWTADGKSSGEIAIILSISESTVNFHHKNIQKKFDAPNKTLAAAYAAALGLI", "assay": "ChIP-seq of RhlR-binding sites", "format": "cell-based", "conditions": "2 µM C4HSL", "experimental": "(§1) P. aeruginosa strains were grown overnight, back diluted 1:100 in fresh LB media, and grown to an OD600 = 2.0. Crosslinking, lysis, and immunoprecipitation were performed as previously described ([37])."}, "[2]": {"molecular_target": "T2, RhlR A44M in ΔrhlI strain (Pseudomonas aeruginosa, UniProt P54292, A44M)", "T2 construct": "expressed in transfected cells; host or cells: P. aeruginosa UCBPP-PA14 ΔrhlI, mutant allele placed on the chromosome at the native rhlR locus", "T2 sequence (P54292 1-241 A44M)": "T1 sequence (P54292 1-241) with A44M", "assay": "ChIP-seq of RhlR-binding sites", "format": "cell-based", "conditions": "2 µM C4HSL", "experimental": "as §1"}, "[3]": {"system": "pyocyanin production", "conditions": "cited from earlier work"}},
  "note": "Numbering of substitutions follows the chain as printed.",
  "data": [
    {"smiles": "CCCC(=O)N[C@H]1CCOC1=O", "note": "[C4HSL, N-butyryl-L-homoserine lactone]", "values": [
      {"measurement": "ChIP-seq enrichment at PA14_01490 (rahU) (peak 139,733)", "setting": "[1]", "result": "1,797.7"},
      {"measurement": "ChIP-seq enrichment at PA14_06320 (peak 560,072)", "setting": "[1]", "result": "1,705.2"},
      {"measurement": "ChIP-seq enrichment at PA14_10360 (peak 895,433)", "setting": "[1]", "result": "1,134.9"},
      {"measurement": "ChIP-seq enrichment at PA14_16100*, PA14_16110 (peak 1,372,370)", "setting": "[1]", "result": "1,180.9"},
      {"measurement": "ChIP-seq enrichment at PA14_18800 (peak 1,620,628)", "setting": "[1]", "result": 664.1},
      {"measurement": "ChIP-seq enrichment at PA14_18810 operon (peak 1,621,028)", "setting": "[1]", "result": 127.1},
      {"measurement": "ChIP-seq enrichment at PA14_20130, PA14_20140 (fpr) (peak 1,735,823)", "setting": "[1]", "result": 258.2},
      {"measurement": "ChIP-seq enrichment at PA14_21020 (azeB) operon, PA14_21030 (peak 1,816,906)", "setting": "[1]", "result": "4,251.6"},
      {"measurement": "ChIP-seq enrichment at PA14_22090 (peak 1,921,598)", "setting": "[1]", "result": 402.5},
      {"measurement": "ChIP-seq enrichment at PA14_28250*, PA14_28260 (peak 2,444,398)", "setting": "[1]", "result": 126.8},
      {"measurement": "ChIP-seq enrichment at PA14_29620, fhp operon (peak 2,568,048)", "setting": "[1]", "result": "2,516.7"},
      {"measurement": "ChIP-seq enrichment at PA14_30570, PA14_30580 (vqsR) (peak 2,647,472)", "setting": "[1]", "result": 770.7},
      {"measurement": "ChIP-seq enrichment at PA14_30840* (peak 2,677,542)", "setting": "[1]", "result": "7,49.74"},
      {"measurement": "ChIP-seq enrichment at PA14_37745 operon (peak 3,364,761)", "setting": "[1]", "result": 408.8},
      {"measurement": "ChIP-seq enrichment at PA14_48140 operon (peak 4,285,523)", "setting": "[1]", "result": 311.1},
      {"measurement": "ChIP-seq enrichment at PA14_48530 operon (peak 4,313,855)", "setting": "[1]", "result": 838.3},
      {"measurement": "ChIP-seq enrichment at PA14_49310 (peak 4,382,169)", "setting": "[1]", "result": "1,250.8"},
      {"measurement": "ChIP-seq enrichment at PA14_49740, PA14_49750 operon (peak 4,425,570)", "setting": "[1]", "result": "1,588.8"},
      {"measurement": "ChIP-seq enrichment at PA14_57970*, PA14_57980 (peak 5,159,548)", "setting": "[1]", "result": 826},
      {"measurement": "ChIP-seq enrichment at PA14_59180* (peak 5,268,881)", "setting": "[1]", "result": 381.4},
      {"measurement": "ChIP-seq enrichment at PA_48530* (peak 4,314,560)", "setting": "[1]", "result": 258.8},
      {"measurement": "ChIP-seq enrichment at arcD operon (peak 6,093,032)", "setting": "[1]", "result": "1,302.3"},
      {"measurement": "ChIP-seq enrichment at hcnA operon, exoY (peak 3,236,436)", "setting": "[1]", "result": "2,43.83"},
      {"measurement": "ChIP-seq enrichment at hsiA2 operon, hcpD (peak 3,831,541)", "setting": "[1]", "result": "1,370.2"},
      {"measurement": "ChIP-seq enrichment at lasA (peak 3,600,666)", "setting": "[1]", "result": 239.4},
      {"measurement": "ChIP-seq enrichment at lasB (peak 1,387,361)", "setting": "[1]", "result": 597.9},
      {"measurement": "ChIP-seq enrichment at lecB, PA14_20620 operon (peak 1,774,336)", "setting": "[1]", "result": "16,502.8"},
      {"measurement": "ChIP-seq enrichment at pa1L (peak 2,721,761)", "setting": "[1]", "result": 204.8},
      {"measurement": "ChIP-seq enrichment at peak 5,414,219", "setting": "[1]", "result": 519},
      {"measurement": "ChIP-seq enrichment at phzA1 operon, phzM (peak 813,529)", "setting": "[1]", "result": "5,438.8"},
      {"measurement": "ChIP-seq enrichment at phzA2 operon (peak 3,561,969)", "setting": "[1]", "result": 575.2},
      {"measurement": "ChIP-seq enrichment at phzB1*, phzC1 (peak 812,427)", "setting": "[1]", "result": "1,614.1"},
      {"measurement": "ChIP-seq enrichment at phzB2*, phzC2 (peak 3,561,157)", "setting": "[1]", "result": 214.5},
      {"measurement": "ChIP-seq enrichment at phzH (peak 64,211)", "setting": "[1]", "result": "1,937.1"},
      {"measurement": "ChIP-seq enrichment at rhlA operon (peak 1,648,391)", "setting": "[1]", "result": "4,107.6"},
      {"measurement": "ChIP-seq enrichment at rhlI (peak 1,651,804)", "setting": "[1]", "result": 562.1},
      {"measurement": "ChIP-seq enrichment at rmlB operon (peak 6,082,366)", "setting": "[1]", "result": "2,46.6"},
      {"measurement": "ChIP-seq enrichment at rpsL operon (peak 754,615)", "setting": "[1]", "result": 580.9},
      {"measurement": "ChIP-seq enrichment at tnpS, tnpT operon (peak 3,188,223)", "setting": "[1]", "result": 365.2},
      {"measurement": "ChIP-seq enrichment at PA14_01490 (rahU) (peak 139,733)", "setting": "[2]", "result": 36.29},
      {"measurement": "ChIP-seq enrichment at PA14_06320 (peak 560,072)", "setting": "[2]", "result": 207.8},
      {"measurement": "ChIP-seq enrichment at PA14_10360 (peak 895,433)", "setting": "[2]", "result": 557.9},
      {"measurement": "ChIP-seq enrichment at PA14_16100*, PA14_16110 (peak 1,372,370)", "setting": "[2]", "result": 41.27},
      {"measurement": "ChIP-seq enrichment at PA14_18800 (peak 1,620,628)", "setting": "[2]", "result": 459},
      {"measurement": "ChIP-seq enrichment at PA14_18810 operon (peak 1,621,028)", "setting": "[2]", "result": 216.7},
      {"measurement": "ChIP-seq enrichment at PA14_20130, PA14_20140 (fpr) (peak 1,735,823)", "setting": "[2]", "result": 187.2},
      {"measurement": "ChIP-seq enrichment at PA14_21020 (azeB) operon, PA14_21030 (peak 1,816,906)", "setting": "[2]", "result": "2,385.1"},
      {"measurement": "ChIP-seq enrichment at PA14_22090 (peak 1,921,598)", "setting": "[2]", "result": 403.3},
      {"measurement": "ChIP-seq enrichment at PA14_28250*, PA14_28260 (peak 2,444,398)", "setting": "[2]", "result": 18.9},
      {"measurement": "ChIP-seq enrichment at PA14_29620, fhp operon (peak 2,568,048)", "setting": "[2]", "result": 698.1},
      {"measurement": "ChIP-seq enrichment at PA14_30570, PA14_30580 (vqsR) (peak 2,647,472)", "setting": "[2]", "result": 454.9},
      {"measurement": "ChIP-seq enrichment at PA14_30840* (peak 2,677,542)", "setting": "[2]", "result": 631.2},
      {"measurement": "ChIP-seq enrichment at PA14_37745 operon (peak 3,364,761)", "setting": "[2]", "result": 0},
      {"measurement": "ChIP-seq enrichment at PA14_48140 operon (peak 4,285,523)", "setting": "[2]", "result": 89.06},
      {"measurement": "ChIP-seq enrichment at PA14_48530 operon (peak 4,313,855)", "setting": "[2]", "result": 870.2},
      {"measurement": "ChIP-seq enrichment at PA14_49310 (peak 4,382,169)", "setting": "[2]", "result": 273.4},
      {"measurement": "ChIP-seq enrichment at PA14_49740, PA14_49750 operon (peak 4,425,570)", "setting": "[2]", "result": 518.7},
      {"measurement": "ChIP-seq enrichment at PA14_57970*, PA14_57980 (peak 5,159,548)", "setting": "[2]", "result": 16.73},
      {"measurement": "ChIP-seq enrichment at PA14_59180* (peak 5,268,881)", "setting": "[2]", "result": 320.1},
      {"measurement": "ChIP-seq enrichment at PA_48530* (peak 4,314,560)", "setting": "[2]", "result": 476.8},
      {"measurement": "ChIP-seq enrichment at arcD operon (peak 6,093,032)", "setting": "[2]", "result": 97.46},
      {"measurement": "ChIP-seq enrichment at hcnA operon, exoY (peak 3,236,436)", "setting": "[2]", "result": 998.8},
      {"measurement": "ChIP-seq enrichment at hsiA2 operon, hcpD (peak 3,831,541)", "setting": "[2]", "result": 840.8},
      {"measurement": "ChIP-seq enrichment at lasA (peak 3,600,666)", "setting": "[2]", "result": 0},
      {"measurement": "ChIP-seq enrichment at lasB (peak 1,387,361)", "setting": "[2]", "result": 155.1},
      {"measurement": "ChIP-seq enrichment at lecB, PA14_20620 operon (peak 1,774,336)", "setting": "[2]", "result": "3,659.5"},
      {"measurement": "ChIP-seq enrichment at pa1L (peak 2,721,761)", "setting": "[2]", "result": 431.4},
      {"measurement": "ChIP-seq enrichment at peak 5,414,219", "setting": "[2]", "result": 86.36},
      {"measurement": "ChIP-seq enrichment at phzA1 operon, phzM (peak 813,529)", "setting": "[2]", "result": "1,47.87"},
      {"measurement": "ChIP-seq enrichment at phzA2 operon (peak 3,561,969)", "setting": "[2]", "result": 134.6},
      {"measurement": "ChIP-seq enrichment at phzB1*, phzC1 (peak 812,427)", "setting": "[2]", "result": 872.5},
      {"measurement": "ChIP-seq enrichment at phzB2*, phzC2 (peak 3,561,157)", "setting": "[2]", "result": 241.2},
      {"measurement": "ChIP-seq enrichment at phzH (peak 64,211)", "setting": "[2]", "result": "1,287.1"},
      {"measurement": "ChIP-seq enrichment at rhlA operon (peak 1,648,391)", "setting": "[2]", "result": 636},
      {"measurement": "ChIP-seq enrichment at rhlI (peak 1,651,804)", "setting": "[2]", "result": 425},
      {"measurement": "ChIP-seq enrichment at rmlB operon (peak 6,082,366)", "setting": "[2]", "result": 428.1},
      {"measurement": "ChIP-seq enrichment at rpsL operon (peak 754,615)", "setting": "[2]", "result": 128.1},
      {"measurement": "ChIP-seq enrichment at tnpS, tnpT operon (peak 3,188,223)", "setting": "[2]", "result": 255},
      {"measurement": "C4HSL concentration above which pyocyanin production is lost", "setting": "[3]", "result": "> 5", "unit": "µM"},
      {"measurement": "C4HSL concentration below which pyocyanin production is lost", "setting": "[3]", "result": "< 500", "unit": "nM"}
    ]}
  ]
}
